Experimental data: PubChem BioAssay (NCI)
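How tested: cells in 96-well plates exposed to compound for 48 hours at five concentrations. The concentration for 50% growth inhibition is given as GI50. TGI: total growth inhibition.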

How the values were obtained:
Test in all cases: NCI-60 cell line screen, 48 h
786-0 renal = tested on: 786-0 renal
A498 renal = tested on: A498 renal
A549 NSCLC = tested on: A549 NSCLC
ACHN renal = tested on: ACHN renal
BT-549 breast = tested on: BT-549 breast
CAKI-1 renal = tested on: CAKI-1 renal
CCRF-CEM leukemia = tested on: CCRF-CEM leukemia
COLO 205 colon = tested on: COLO 205 colon
DU-145 prostate = tested on: DU-145 prostate
EKVX NSCLC = tested on: EKVX NSCLC
HCC-2998 colon = tested on: HCC-2998 colon
HCT-116 colon = tested on: HCT-116 colon
HCT-15 colon = tested on: HCT-15 colon
HL-60(TB) leukemia = tested on: HL-60(TB) leukemia
HOP-62 NSCLC = tested on: HOP-62 NSCLC
HOP-92 NSCLC = tested on: HOP-92 NSCLC
HS 578T breast = tested on: HS 578T breast
HT29 colon = tested on: HT29 colon
IGROV1 ovarian = tested on: IGROV1 ovarian
K-562 leukemia = tested on: K-562 leukemia
KM12 colon = tested on: KM12 colon
LOX IMVI melanoma = tested on: LOX IMVI melanoma
M14 melanoma = tested on: M14 melanoma
MALME-3M melanoma = tested on: MALME-3M melanoma
MCF7 breast = tested on: MCF7 breast
MDA-MB-231 breast = tested on: MDA-MB-231 breast
MDA-MB-435 = tested on: MDA-MB-435
MOLT-4 leukemia = tested on: MOLT-4 leukemia
NCI-H226 lung = tested on: NCI-H226 lung
NCI-H23 lung = tested on: NCI-H23 lung
NCI-H460 lung = tested on: NCI-H460 lung
NCI-H522 lung = tested on: NCI-H522 lung
NCI/ADR-RES ovarian = tested on: NCI/ADR-RES ovarian
OVCAR-3 ovarian = tested on: OVCAR-3 ovarian
OVCAR-4 ovarian = tested on: OVCAR-4 ovarian
OVCAR-5 ovarian = tested on: OVCAR-5 ovarian
OVCAR-8 ovarian = tested on: OVCAR-8 ovarian
PC-3 prostate = tested on: PC-3 prostate
RPMI-8226 leukemia = tested on: RPMI-8226 leukemia
RXF 393 renal = tested on: RXF 393 renal
SF-268 CNS = tested on: SF-268 CNS
SF-295 CNS = tested on: SF-295 CNS
SF-539 CNS = tested on: SF-539 CNS
SK-MEL-2 melanoma = tested on: SK-MEL-2 melanoma
SK-MEL-28 melanoma = tested on: SK-MEL-28 melanoma
SK-MEL-5 melanoma = tested on: SK-MEL-5 melanoma
SK-OV-3 ovarian = tested on: SK-OV-3 ovarian
SN12C renal = tested on: SN12C renal
SNB-19 CNS = tested on: SNB-19 CNS
SNB-75 CNS = tested on: SNB-75 CNS
SR leukemia = tested on: SR leukemia
SW-620 colon = tested on: SW-620 colon
T-47D breast = tested on: T-47D breast
TK-10 renal = tested on: TK-10 renal
U251 CNS = tested on: U251 CNS
UACC-257 melanoma = tested on: UACC-257 melanoma
UACC-62 melanoma = tested on: UACC-62 melanoma
UO-31 renal = tested on: UO-31 renal

Structure (SMILES): O=S(=O)(Nc1ccc(F)cc1F)c1ccc(-c2cnc(C3CC3)o2)cc1
- GI50 (786-0 renal): 0.906 µM
- TGI (786-0 renal): 63 µM
- GI50 (A498 renal): 0.223 µM
- TGI (A498 renal): 2.08 µM
- GI50 (A549 NSCLC): 0.868 µM
- TGI (A549 NSCLC): > 100 µM
- GI50 (ACHN renal): 1.62 µM
- TGI (ACHN renal): 31.2 µM
- GI50 (BT-549 breast): 0.597 µM
- TGI (BT-549 breast): 24 µM
- GI50 (CAKI-1 renal): 0.562 µM
- TGI (CAKI-1 renal): > 65.3 µM
- GI50 (CCRF-CEM leukemia): 0.856 µM
- TGI (CCRF-CEM leukemia): > 100 µM
- GI50 (COLO 205 colon): 0.767 µM
- TGI (COLO 205 colon): 17.1 µM
- GI50 (DU-145 prostate): 2.09 µM
- TGI (DU-145 prostate): > 100 µM
- GI50 (EKVX NSCLC): 1.44 µM
- TGI (EKVX NSCLC): > 73 µM
- GI50 (HCC-2998 colon): 2.39 µM
- TGI (HCC-2998 colon): 27.3 µM
- GI50 (HCT-116 colon): 0.421 µM
- TGI (HCT-116 colon): > 64 µM
- GI50 (HCT-15 colon): 0.37 µM
- TGI (HCT-15 colon): 46.7 µM
- GI50 (HL-60(TB) leukemia): 0.397 µM
- TGI (HL-60(TB) leukemia): 6.39 µM
- GI50 (HOP-62 NSCLC): 0.724 µM
- TGI (HOP-62 NSCLC): 47.6 µM
- GI50 (HOP-92 NSCLC): 0.25 µM
- TGI (HOP-92 NSCLC): 10.6 µM
- GI50 (HS 578T breast): 0.545 µM
- TGI (HS 578T breast): 22.7 µM
- GI50 (HT29 colon): 0.381 µM
- TGI (HT29 colon): 15.2 µM
- GI50 (IGROV1 ovarian): 0.535 µM
- TGI (IGROV1 ovarian): 67.2 µM
- GI50 (K-562 leukemia): 0.211 µM
- TGI (K-562 leukemia): > 100 µM
- GI50 (KM12 colon): 0.485 µM
- TGI (KM12 colon): 28.5 µM
- GI50 (LOX IMVI melanoma): 0.588 µM
- TGI (LOX IMVI melanoma): 22 µM
- GI50 (M14 melanoma): 0.376 µM
- TGI (M14 melanoma): > 59.9 µM
- GI50 (MALME-3M melanoma): 0.615 µM
- TGI (MALME-3M melanoma): 34.2 µM
- GI50 (MCF7 breast): 0.398 µM
- TGI (MCF7 breast): > 55.9 µM
- GI50 (MDA-MB-231 breast): 1.37 µM
- TGI (MDA-MB-231 breast): 21.7 µM
- GI50 (MDA-MB-435): 0.14 µM
- TGI (MDA-MB-435): 2.72 µM
- GI50 (MOLT-4 leukemia): 0.652 µM
- TGI (MOLT-4 leukemia): > 70.1 µM
- GI50 (NCI-H226 lung): 1.7 µM
- TGI (NCI-H226 lung): 43.3 µM
- GI50 (NCI-H23 lung): 1.75 µM
- TGI (NCI-H23 lung): 68.9 µM
- GI50 (NCI-H460 lung): 0.404 µM
- TGI (NCI-H460 lung): 28.2 µM
- GI50 (NCI-H522 lung): 0.347 µM
- TGI (NCI-H522 lung): 16 µM
- GI50 (NCI/ADR-RES ovarian): 0.394 µM
- TGI (NCI/ADR-RES ovarian): 15 µM
- GI50 (OVCAR-3 ovarian): 0.493 µM
- TGI (OVCAR-3 ovarian): 11.9 µM
- GI50 (OVCAR-4 ovarian): 3.13 µM
- TGI (OVCAR-4 ovarian): > 100 µM
- GI50 (OVCAR-5 ovarian): 2.71 µM
- TGI (OVCAR-5 ovarian): > 100 µM
- GI50 (OVCAR-8 ovarian): 1.57 µM
- TGI (OVCAR-8 ovarian): > 95.2 µM
- GI50 (PC-3 prostate): 0.897 µM
- TGI (PC-3 prostate): > 50.1 µM
- GI50 (RPMI-8226 leukemia): 0.828 µM
- TGI (RPMI-8226 leukemia): 29.8 µM
- GI50 (RXF 393 renal): 0.595 µM
- TGI (RXF 393 renal): 7.05 µM
- GI50 (SF-268 CNS): 4.82 µM
- TGI (SF-268 CNS): > 70.4 µM
- GI50 (SF-295 CNS): 0.359 µM
- TGI (SF-295 CNS): 5.53 µM
- GI50 (SF-539 CNS): 0.674 µM
- TGI (SF-539 CNS): 5.71 µM
- GI50 (SK-MEL-2 melanoma): 0.737 µM
- TGI (SK-MEL-2 melanoma): 34.6 µM
- GI50 (SK-MEL-28 melanoma): 13.1 µM
- TGI (SK-MEL-28 melanoma): > 71.9 µM
- GI50 (SK-MEL-5 melanoma): 0.666 µM
- TGI (SK-MEL-5 melanoma): 12.9 µM
- GI50 (SK-OV-3 ovarian): 2.52 µM
- TGI (SK-OV-3 ovarian): 61.6 µM
- GI50 (SN12C renal): 0.878 µM
- TGI (SN12C renal): 39.8 µM
- GI50 (SNB-19 CNS): 0.638 µM
- TGI (SNB-19 CNS): > 100 µM
- GI50 (SNB-75 CNS): 0.219 µM
- TGI (SNB-75 CNS): 1.25 µM
- GI50 (SR leukemia): 0.406 µM
- TGI (SR leukemia): > 100 µM
- GI50 (SW-620 colon): 0.395 µM
- TGI (SW-620 colon): > 100 µM
- GI50 (T-47D breast): 0.443 µM
- TGI (T-47D breast): 52.8 µM
- GI50 (TK-10 renal): 3.2 µM
- TGI (TK-10 renal): 48.3 µM
- GI50 (U251 CNS): 0.552 µM
- TGI (U251 CNS): 26.8 µM
- GI50 (UACC-257 melanoma): 10.3 µM
- TGI (UACC-257 melanoma): 51.8 µM
- GI50 (UACC-62 melanoma): 0.358 µM
- TGI (UACC-62 melanoma): 23.3 µM
- GI50 (UO-31 renal): 1.07 µM
- TGI (UO-31 renal): 34.2 µM

Structure (SMILES): C=C1C(=O)OC2CC(C)C3(O)CCC(=O)C3(C)CC12 (configuration not stated)
- TGI (786-0 renal): 59.7 µM
- TGI (A498 renal): 66.2 µM
- TGI (A549 NSCLC): > 100 µM
- TGI (ACHN renal): 36.2 µM
- TGI (BT-549 breast): > 100 µM
- TGI (CAKI-1 renal): 44.4 µM
- TGI (CCRF-CEM leukemia): > 100 µM
- TGI (COLO 205 colon): > 100 µM
- TGI (DU-145 prostate): > 100 µM
- TGI (EKVX NSCLC): > 100 µM
- TGI (HCC-2998 colon): 50 µM
- TGI (HCT-116 colon): 99.4 µM
- TGI (HCT-15 colon): 28.1 µM
- TGI (HL-60(TB) leukemia): 39.2 µM
- TGI (HOP-62 NSCLC): > 100 µM
- TGI (HOP-92 NSCLC): > 100 µM
- TGI (HS 578T breast): 61.4 µM
- TGI (HT29 colon): 43.4 µM
- TGI (IGROV1 ovarian): 82.6 µM
- TGI (KM12 colon): 42.6 µM
- TGI (LOX IMVI melanoma): > 100 µM
- TGI (M14 melanoma): 55.6 µM
- TGI (MALME-3M melanoma): 69.5 µM
- TGI (MCF7 breast): > 100 µM
- TGI (MDA-MB-231 breast): > 100 µM
- TGI (MDA-MB-435): > 100 µM
- TGI (MOLT-4 leukemia): 58 µM
- TGI (NCI-H226 lung): > 100 µM
- TGI (NCI-H23 lung): > 100 µM
- TGI (NCI-H522 lung): 30.3 µM
- TGI (NCI/ADR-RES ovarian): > 100 µM
- TGI (OVCAR-3 ovarian): 46.5 µM
- TGI (OVCAR-4 ovarian): 40.2 µM
- TGI (OVCAR-5 ovarian): 74.3 µM
- TGI (OVCAR-8 ovarian): 70.3 µM
- TGI (PC-3 prostate): > 100 µM
- TGI (RPMI-8226 leukemia): 43.1 µM
- TGI (RXF 393 renal): 79.7 µM
- TGI (SF-268 CNS): 64.5 µM
- TGI (SF-295 CNS): > 100 µM
- TGI (SF-539 CNS): 32.7 µM
- TGI (SK-MEL-2 melanoma): 71.5 µM
- TGI (SK-MEL-28 melanoma): > 100 µM
- TGI (SK-MEL-5 melanoma): > 100 µM
- TGI (SK-OV-3 ovarian): > 100 µM
- TGI (SN12C renal): 48.8 µM
- TGI (SNB-19 CNS): 61.4 µM
- TGI (SNB-75 CNS): 84.3 µM
- TGI (SR leukemia): 57 µM
- TGI (SW-620 colon): > 100 µM
- TGI (T-47D breast): > 100 µM
- TGI (TK-10 renal): 99.1 µM
- TGI (U251 CNS): > 100 µM
- TGI (UACC-257 melanoma): > 100 µM
- TGI (UACC-62 melanoma): > 100 µM
- TGI (UO-31 renal): > 100 µM
